The values below come from patent US20260297136A1, “PEPTIDES WITH LIPOLYTIC, ANTI-LIPOGENIC, ANTIFIBROTIC AND ANTI-INFLAMMATORY ACTIVITY” (FUNDACIÓ HOSPITAL UNIVERSITARI VALL D'HEBRON - INSTITUT DE …, priority 2023, published 2026).

For the test, the system named is obesity and fatty liver disease mouse model. Put plainly: Preventive effects in an obesity and fatty liver disease mouse model, Example 4. In kind it is in vivo, C57BL6/J male mice. As to conditions: 20 mg/kg/day sc, 8 weeks. The protocol:
C57BL6/J male mice were purchased and kept for quarantine and acclimatization for a period of about 7 days before initiation of every experiment. Mice were housed in clean and sterilized mice cages and maintained in a controlled environment with 22+3° C. temperature, 50+20% humidity, a light/dark cycle of 12 hours each and 15-20 fresh air changes per hour.
For Obesity and NAFLD induction, the animals were fed ad libitum, either with chow diet (150SP-10, Safe Diets) or 45% high-fat diet (TD.190179, Envigo) plus 30% fructose (F0127, Sigma Aldrich) in drinking water for 8 weeks in the daily presence of vehicle or a subcutaneous injection of GP6 (20 mg/kg/day). A group of mice (n=18) was randomly divided in two groups of 9 mice each. Both groups were fed with high fat diet and 30% fructose in the drinking water for 8 weeks to develop obesity and fatty liver disease. One group was treated with daily subcutaneous injections of vehicle (water) and the other with daily subcutaneous injection of GP6 (20 mg/kg/day) during the 8 weeks that last the experiment.
At the end of the experiment mice were sacrificed, serum samples were extracted, tissues were weighted and part was fixed in paraformaldehyde for histology studies and part immediately frozen at −80 C for mRNA and protein expression studies as well as assessment of triglycerides.
For histological studies, livers and adipose tissue were fixed in 4% paraformaldehyde for 24 hours and embedded in paraffin. Serial […] sections were used for histological examination and stained with hematoxylin eosin (H&E) and Picrosirius red for histological examination following standard procedures. Briefly, sections were alcohol-xylol hydrated at room temperature, and subsequently, they were stained at room temperature in a solution of 0.1% Direct Red 80 (Sigma-Aldrich) in a saturated aqueous solution of [COMPOUND LEFT OUT] (Sigma-Aldrich) for 1 h. Following that, sections were rinsed twice in 0.5% acetic acid or 5 min, alcohol-xylol dehydrated and covered with Eukitt mounting medium (Sigma-Aldrich). These sections were examined with an Olympus BX61 microscope. Six random fields at 4× magnification from each slice were quantified using ImageJ software to determine the liver collagen deposition as the red stained area in the image. The stage of liver steatosis and/or fibrosis was assessed blinded by an experienced pathologist according to the NASH-clinical research network scoring system (Design and validation of a histological scoring system for nonalcoholic fatty liver disease. Kleiner D E, Brunt E M, Van Natta M, Behling C, Contos MJ, Cummings O W, Ferrell L D, Liu Y C, Torbenson M S, Unalp-Arida A, Yeh M, McCullough A J, Sanyal AJ; Nonalcoholic Steatohepatitis Clinical Research Network. Hepatology. 2005 June; 41(6):1313-21. doi: 10.1002/hep.20701; Transforming growth factor-beta 1: A new factor reducing hepatic SHBG production in liver fibrosis. Briansó-Llort L, Fuertes-Rioja L, Ramos-Perez L, Salcedo-Allende M T, Hernandez C, Simo R, Selva D M. J Cell Physiol. 2022 September; 237(9):3598-3613. doi: 10.1002/jcp.30818). […]
Hepatic TG content was measured from liver extracts using a Triglyceride Assay Kit (ab65336) following the manufacture's instructions.
Total RNA was extracted from mouse tissues using TRIzol reagent (Invitrogen SA). Reverse transcription was performed at 42° C. for 50 minutes using […] of total RNA, 200 U of Superscript II, and an oligo-dT primer and reagents provided by Invitrogen. An aliquot of the reverse transcription product was amplified in a […] reaction using SYBRGreen (Invitrogen SA) with appropriate oligonucleotide primer pairs corresponding mouse ACC, FAS, ACLY, PPARG, Col1A1, F4/80, TNFα, IL1β, IL6, TGFβ1, Leptin, Adiponectin and 18S (shown in table 7). […]

[1] abbreviates: blind pathologist, histology reduction confirmed.

Each structure is given as a SMILES string.

Turning to `CC[C@@H](C)[C@@H](NC(=O)[C@H](NC(=O)CNC(=O)[C@@H](CCC(=O)O)NC(=O)[C@H]1CCCN1C(=O)[C@@H](CC(=O)O)NC(=O)[C@@H](Cc1c[nH]c2ccccc12)NC(=O)[C@H](NC(=O)[C@@H](CCCNC(=N)N)NC(=O)[C@H](NC(=O)[C@@H](CCC(=O)O)NC(=O)[C@@H](Cc1ccccc1)NC(=O)[C@@H](CO)NC(=O)[C@@H](CO)NC(=O)[C@@H](CO)NC(=O)[C@H](NC(=O)[C@@H](CCCCN)NC(=O)[C@H](N)[C@H](C)O)[C@H](C)O)C(C)C)[C@H](C)O)C(C)C)C(=O)N[C@H](Cc1ccccc1)C(=O)N[C@H](Cc1ccc(O)cc1)C(=O)O` [GP6], under “vs vehicle”, the “ACC mRNA levels in liver” value was “reduced the mRNA levels”, the “F480 mRNA levels in adipose tissue” value is “reduced expression”, the “F480 mRNA levels in hepatic tissue” value is listed as “reduced expression” and the “FAS mRNA levels in liver” value is listed as “reduced the mRNA levels”. Further, under “vs vehicle”, the “PPARγ mRNA levels in liver” value is recorded as “reduced the mRNA levels”, the Total body weight result is listed as “significantly reduced”, the “adipose tissue fibrosis (Col1A1 mRNA expression in adipose tissue)” value is given as “reduced adipose tissue fibrosis” and the “hepatic expression of IL1β” value is listed as “reduced the hepatic expression”. Also, for the setting “vs vehicle”, the “hepatic expression of IL6” value is “reduced the hepatic expression”, the “hepatic expression of TNFα” value is listed as “reduced the hepatic expression”, the total liver weight entry is “significantly reduced” and the “weight increment (weight at week 8-weight at week 0)” value is listed as “significantly reduced”. Besides, under “vs vehicle”, the “weight of brown adipose tissue” value was “significantly reduced”, the “weight of subcutaneous adipose tissue” value is on record as “significantly reduced” and the “weight of visceral adipose tissue” value is on record as “significantly reduced”. The “hepatic lipid accumulation (histology)” value (vs vehicle, H&E) is recorded as “reduced significantly”. Also, under setting [1], the Brunt score result was “confirmed”, the Steatosis score entry was “confirmed” and the percentage of steatosis result was “confirmed”. The “hepatic triglyceride content (Liver TAG)” value (histology reduction confirmed) is reported as “confirmed”.
